{"source": "patent US10718028B2", "about": "“Fluorescent probes for abasic site detection” (CASE WESTERN RESERVE UIVERSITY, priority 2015, dated 2020)", "key": {"[1]": {"tested_on": "AP sites in calf thymus DNA", "assay": "MX or ARP and Cy7MX genomic DNA competition assay", "type": "binding", "description": "Calf thymus DNA was purchased from Sigma and was reconstituted overnight at 4° C. in either H2O or 500 mM MX (to eliminate basal AP sites) with gentle shaking (1.5 mL water or solution per 5 mg DNA). For samples reconstituted in MX solution, an ethanol precipitation was performed twice before heat and acid treatment (vide infra) then reconstituted in water. The DNA-water solution was aliquoted to 1.5 mL Eppendorf tubes (360 μL) and 10× Citrate buffer (1M NaCl, 100 μM monosodium phosphate, 100 μM monosodium citrate, pH 5.0) was added to a final concentration of 1×. For t=0 min samples, ice-cold 100% EtOH (1.0 mL) was added immediately and the Eppendorf tubes stored at −20° C. Other samples were placed in a 70° C. heating block for 15-90 minutes in 15-minute increments. Samples were removed from heat, precipitated in ice-cold 100% EtOH (1.0 mL), and then chilled at −20° C. for at least 20 minutes. Samples were centrifuged at 12,000×G for 10 min at 4° C. The supernatant was discarded. The process was repeated once beginning with the addition of EtOH (1.0 mL). The DNA pellet was dissolved in 700 μL H2O or TE buffer. Aliquots of 80 μL were put in 1.5 mL Eppendorf tubes. Any samples not used immediately were stored at −80° C.\nSolutions of MX and Cy7MX were prepared in H2O varying [MX] from 0-1.9 M and maintaining at 25 μM. […] The ratios of MX:Cy7MX used in this study were: 0, 0.01, 0.1, 0.5, 1, 5, 10, 50, 100, 250, 500, 1000, 2500, 5000, 10000, 25000, 50000, and 75000. […] The following samples were prepared in triplicate: 20 μL of MX/Cy7MX solution was added to 80 μL aliquots of heat/acid treated DNA (t=45 min). Samples were incubated for 1 h at 37° C. in the dark. Ice-cold EtOH (1.0 mL) was added and the DNA was purified by EtOH precipitation three times as described in the heat/acid treatment of genomic DNA section. DNA was dissolved in 150 μL H2O. Aliquots (125 μL) of the samples were added to a black, clear-bottom 96 well plate (Corning) and analyzed with 750 nm excitation and 800 nm emission. Fluorescence was adjusted to DNA concentration.\nAs before (section 2.3.2) except solutions of ARP and Cy7MX were prepared in H2O varying [ARP] from 0-75 mM and maintaining at 1 μM. The ratios of ARP: Cy7MX used in this study were: 0, 0.1, 1, 10, 100, 500, 1000, 5000, 10000, 25000, 50000, and 75000."}, "DLD1 cells": {"tested_on": "DLD1 cells", "assay": "ARP analysis of FUDR treated DLD1 DNA", "type": "cell-based", "conditions": "ARP-based DNA Damage Quantification Kit, same DNA samples", "description": "DNA aliquots (10 μL) from above were diluted in TE buffer (10 μL). DNA concentrations were measured on a Nanodrop 1000 and adjusted to 100 μg/mL in TE buffer. Samples were prepared for ARP analysis using the ARP DNA Damage Quantification Kit (Dojindo #DK02-12). Samples were prepared and analyzed according to the manufacturer's instructions."}}}
{"smiles": "NOCC(=O)NNC(=O)CCCC[C@@H]1SC[C@@H]2NC(=O)N[C@@H]21", "note": "[ARP]", "values": [{"measurement": "ED50 of Cy7MX, excess of competitor", "setting": "[1]; 1 h at 37° C., constant Cy7MX", "value": 2600, "unit": "× excess"}, {"measurement": "ED50, molar ratio of probe to Cy7MX", "setting": "[1]; calf thymus DNA heat/acid 45 min, FIG. 13", "value": 2600, "unit": "fold excess"}, {"measurement": "background and sensitivity of AP site detection", "setting": "DLD1 cells", "value": "larger background and lower sensitivity than compound Cy7MX"}]}
